Results as given in the supplement of paper PMC10307832.

What was measured:
Experiment in all cases: relative viability (nuclei count vs DMSO), 5 days (fraction); higher = more cells survive
NCI-H3122 = test system: NCI-H3122
In short: (§1)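 The day after seeding in 1536-well plates, lung cancer cell lines were treated by pin tool with a single drug, or with a fixed anchor-drug dose together with five library-drug doses (not always all listed) in √10 steps. After 5 days, a combined fix-and-stain solution (final 0.05% Triton X-100, 1% formaldehyde, 1 ug/ml Hoechst) was added. Nuclei counted on 4× images gave relative viability as treated counts over vehicle counts, reported as the median of duplicate plates.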

LCLC-97TM1 = test system: LCLC-97TM1
In short: as §1

NCI-H727 = test system: NCI-H727
In short: as §1

CAL-12T = test system: CAL-12T
In short: as §1

NCI-H2405 = test system: NCI-H2405
In short: as §1

NCI-H1650 = test system: NCI-H1650
In short: as §1

SK-LU-1 = test system: SK-LU-1
In short: as §1

NCI-H647 = test system: NCI-H647
In short: as §1

LXF-289 = test system: LXF-289
In short: as §1

NCI-H2087 = test system: NCI-H2087
In short: as §1

RERF-LC-KJ = test system: RERF-LC-KJ
In short: as §1

BEN = test system: BEN
In short: as §1

NCI-H2023 = test system: NCI-H2023
In short: as §1

201T = test system: 201T
In short: as §1

NCI-H1355 = test system: NCI-H1355
In short: as §1

HCC-827 = test system: HCC-827
In short: as §1

NCI-H322M = test system: NCI-H322M
In short: as §1

HCC-44 = test system: HCC-44
In short: as §1

HOP-62 = test system: HOP-62
In short: as §1

NCI-H1437 = test system: NCI-H1437
In short: as §1

LCLC-103H = test system: LCLC-103H
In short: as §1

NCI-H2228 = test system: NCI-H2228
In short: as §1

Clc1ccc(Nc2nnc(Cc3ccncc3)c3ccccc23)cc1 [Vatalanib] + C[C@@H](Oc1cc(-c2cnn(C3CCNCC3)c2)cnc1N)c1c(Cl)ccc(F)c1Cl [Crizotinib] (partner 1 µM)
relative viability (NCI-H3122; first compound 0.04 µM): 0.25 | relative viability (NCI-H3122; first compound 0.1265 µM): 0.274 | relative viability (NCI-H3122; first compound 0.4 µM): 0.269 | relative viability (NCI-H3122; first compound 1.265 µM): 0.249 | relative viability (NCI-H3122; first compound 4 µM): 0.288 | relative viability (LCLC-97TM1; first compound 0.04 µM): 0.308 | relative viability (LCLC-97TM1; first compound 0.1265 µM): 0.312 | relative viability (LCLC-97TM1; first compound 0.4 µM): 0.447 | relative viability (LCLC-97TM1; first compound 1.265 µM): 0.386 | relative viability (LCLC-97TM1; first compound 4 µM): 0.365 | relative viability (NCI-H727; first compound 0.04 µM): 0.689 | relative viability (NCI-H727; first compound 0.1265 µM): 0.603 | relative viability (NCI-H727; first compound 0.4 µM): 0.992 | relative viability (NCI-H727; first compound 1.265 µM): 0.693 | relative viability (NCI-H727; first compound 4 µM): 0.654 | relative viability (CAL-12T; first compound 0.04 µM): 0.651 | relative viability (CAL-12T; first compound 0.1265 µM): 0.523 | relative viability (CAL-12T; first compound 0.4 µM): 0.686 | relative viability (CAL-12T; first compound 1.265 µM): 0.446 | relative viability (CAL-12T; first compound 4 µM): 0.746 | relative viability (NCI-H2405; first compound 0.04 µM): 0.896 | relative viability (NCI-H2405; first compound 0.1265 µM): 0.79 | relative viability (NCI-H2405; first compound 0.4 µM): 0.932 | relative viability (NCI-H2405; first compound 1.265 µM): 0.816 | relative viability (NCI-H2405; first compound 4 µM): 0.82 | relative viability (NCI-H1650; first compound 0.04 µM): 0.933 | relative viability (NCI-H1650; first compound 0.1265 µM): 0.997 | relative viability (NCI-H1650; first compound 0.4 µM): 1.06 | relative viability (NCI-H1650; first compound 1.265 µM): 0.92 | relative viability (NCI-H1650; first compound 4 µM): 1.05 | relative viability (SK-LU-1; first compound 0.04 µM): 0.923 | relative viability (SK-LU-1; first compound 0.1265 µM): 0.898 | relative viability (SK-LU-1; first compound 0.4 µM): 1.02 | relative viability (SK-LU-1; first compound 1.265 µM): 1.06 | relative viability (SK-LU-1; first compound 4 µM): 0.696 | relative viability (NCI-H647; first compound 0.04 µM): 0.92 | relative viability (NCI-H647; first compound 0.1265 µM): 1.07 | relative viability (NCI-H647; first compound 0.4 µM): 1.31 | relative viability (NCI-H647; first compound 1.265 µM): 0.977 | relative viability (NCI-H647; first compound 4 µM): 0.918 | relative viability (LXF-289; first compound 0.04 µM): 0.665 | relative viability (LXF-289; first compound 0.1265 µM): 0.743 | relative viability (LXF-289; first compound 0.4 µM): 0.807 | relative viability (LXF-289; first compound 1.265 µM): 0.717 | relative viability (LXF-289; first compound 4 µM): 0.78 | relative viability (NCI-H2087; first compound 0.04 µM): 0.89 | relative viability (NCI-H2087; first compound 0.1265 µM): 1.07 | relative viability (NCI-H2087; first compound 0.4 µM): 0.828 | relative viability (NCI-H2087; first compound 1.265 µM): 0.826 | relative viability (NCI-H2087; first compound 4 µM): 0.89 | relative viability (RERF-LC-KJ; first compound 0.04 µM): 0.881 | relative viability (RERF-LC-KJ; first compound 0.1265 µM): 0.766 | relative viability (RERF-LC-KJ; first compound 0.4 µM): 0.88 | relative viability (RERF-LC-KJ; first compound 1.265 µM): 0.792 | relative viability (RERF-LC-KJ; first compound 4 µM): 0.799 | relative viability (BEN; first compound 0.04 µM): 1.03 | relative viability (BEN; first compound 0.1265 µM): 0.764 | relative viability (BEN; first compound 0.4 µM): 1.01 | relative viability (BEN; first compound 1.265 µM): 0.858 | relative viability (BEN; first compound 4 µM): 1.01 | relative viability (NCI-H2023; first compound 0.04 µM): 0.571 | relative viability (NCI-H2023; first compound 0.1265 µM): 0.667 | relative viability (NCI-H2023; first compound 0.4 µM): 0.698 | relative viability (NCI-H2023; first compound 1.265 µM): 0.605 | relative viability (NCI-H2023; first compound 4 µM): 0.559 | relative viability (201T; first compound 0.04 µM): 1 | relative viability (201T; first compound 0.1265 µM): 1.07 | relative viability (201T; first compound 0.4 µM): 1.03 | relative viability (201T; first compound 1.265 µM): 0.991 | relative viability (201T; first compound 4 µM): 1.07 | relative viability (NCI-H1355; first compound 0.04 µM): 1.05 | relative viability (NCI-H1355; first compound 0.1265 µM): 1.08 | relative viability (NCI-H1355; first compound 0.4 µM): 1.13 | relative viability (NCI-H1355; first compound 1.265 µM): 0.886 | relative viability (NCI-H1355; first compound 4 µM): 0.953 | relative viability (HCC-827; first compound 0.04 µM): 0.845 | relative viability (HCC-827; first compound 0.1265 µM): 0.936 | relative viability (HCC-827; first compound 0.4 µM): 0.943 | relative viability (HCC-827; first compound 1.265 µM): 0.894 | relative viability (HCC-827; first compound 4 µM): 0.853 | relative viability (NCI-H322M; first compound 0.04 µM): 1.02 | relative viability (NCI-H322M; first compound 0.1265 µM): 0.891 | relative viability (NCI-H322M; first compound 0.4 µM): 0.958 | relative viability (NCI-H322M; first compound 1.265 µM): 0.858 | relative viability (NCI-H322M; first compound 4 µM): 0.939 | relative viability (HCC-44; first compound 0.04 µM): 0.836 | relative viability (HCC-44; first compound 0.1265 µM): 0.842 | relative viability (HCC-44; first compound 0.4 µM): 0.804 | relative viability (HCC-44; first compound 1.265 µM): 0.735 | relative viability (HCC-44; first compound 4 µM): 0.701 | relative viability (HOP-62; first compound 0.04 µM): 0.921 | relative viability (HOP-62; first compound 0.4 µM): 0.948 | relative viability (HOP-62; first compound 1.265 µM): 0.911 | relative viability (HOP-62; first compound 4 µM): 0.904 | relative viability (NCI-H1437; first compound 0.04 µM): 0.978 | relative viability (NCI-H1437; first compound 0.1265 µM): 0.934 | relative viability (NCI-H1437; first compound 0.4 µM): 1.02 | relative viability (NCI-H1437; first compound 1.265 µM): 0.886 | relative viability (NCI-H1437; first compound 4 µM): 0.958 | relative viability (LCLC-103H; first compound 0.04 µM): 1.04 | relative viability (LCLC-103H; first compound 0.1265 µM): 1.04 | relative viability (LCLC-103H; first compound 0.4 µM): 1.15 | relative viability (LCLC-103H; first compound 1.265 µM): 0.999 | relative viability (LCLC-103H; first compound 4 µM): 1.11 | relative viability (NCI-H2228; first compound 0.04 µM): 0.332 | relative viability (NCI-H2228; first compound 0.1265 µM): 0.496 | relative viability (NCI-H2228; first compound 0.4 µM): 0.499 | relative viability (NCI-H2228; first compound 1.265 µM): 0.432 | relative viability (NCI-H2228; first compound 4 µM): 0.496
